In one experiment the target is human orexin 1 receptor (Homo sapiens, UniProt O43613). Nature of the experiment: Human orexin 1 receptor radioligand binding. The settings on record: read-out: hOX1 Ki. Here is the method:
(§1) Data are analyzed using pc-Sandy macro and graphed on Graphpad Prism 5. For analysis, each concentration point is averaged from triplicate values and the averaged values are plotted on Graphpad Prism. The IC50 was determined by applying the following equation (GraphPad Prism 5.0, SanDiego) for one site competition where X=log (concentration) and Y=specific binding. Top denotes the total [^3H]-(1-(5-(2-fluoro-phenyl)-2-methyl-thiazol-4-yl)-1-((S)-2-(5-phenyl-(1,3,4)oxadiazol-2-ylmethyl)-pyrrolidin-1-yl)-methanone) binding, bottom denotes the nonspecific [^3H]-(1-(5-(2-fluoro-phenyl)-2-methyl-thiazol-4-yl)-1-((S)-2-(5-phenyl-(1,3,4)oxadiazol-2-ylmethyl)-pyrrolidin-1-yl)-methanone) binding. Graphpad Prism calculates Ki value from IC50 and the pre-determined Kd values for [^3H]-(1-(5-(2-fluoro-phenyl)-2-methyl-thiazol-4-yl)-1-((S)-2-(5-phenyl-(1,3,4)oxadiazol-2-ylmethyl)-pyrrolidin-1-yl)-methanone) and [3H]-EMPA. The Ki for each compound is then uploaded into 3DX. Each run comprises individual compounds in triplicate. The data in Table 1 and Table 2 represent averages from between 2-20 runs
(§2) Rat and Human Orexin 1 Receptor Radioligand Binding Studies
(§3) After centrifugation (2K×G, 5 min at 4° C.), the supernatant was aspirated and the pellets frozen and stored at −80° C. […] Each cell pellet from a 15 cm plate was resuspended in 10 mL, stored on ice, and homogenized for 45 sec prior to addition to the reactions. […] The final concentration of DMSO in the reactions is equal to or less than 0.1%. Total and nonspecific binding was determined in the absence and presence of 10 μM almorexant. The total volume of each reaction is 200 μL (20 μL of diluted compounds, 80 μL of [^3H]-(1-(5-(2-fluoro-phenyl)-2-methyl-thiazol-4-yl)-1-((S)-2-(5-phenyl-(1,3,4)oxadiazol-2-ylmethyl)-pyrrolidin-1-yl)-methanone) diluted in PBS and 100 μL of the cell suspension). […] The plates were washed 3 times by aspirating 30 ml PBS through the plates. Plates were dried in 55° C. oven for 60 min, scintillation fluid was added, and the radioactivity was counted on a Topcount (Packard).

For another experiment, the target named is rat orexin 1 receptor (Rattus norvegicus, UniProt P56718). Nature of the experiment: Rat orexin 1 receptor radioligand binding. The settings on record: read-out: rOX1 Ki. Here is the method:
as §1, §2, §3

A further experiment has as its target human orexin 2 receptor (Homo sapiens (Human), UniProt O43614). Nature of the experiment: Human orexin 2 receptor radioligand binding. Conditions: human orexin 2 receptor; averages of 2-20 runs; read-out: hOX2 Ki. As to the method:
as §1
Human Orexin 2 Receptor Radioligand Binding Studies
as §3, with “HEK293 stably expressing human orexin 2 receptor (Genebank accession number NM_001526) were grown to confluency in DMEM (Hyclone, cat # SH30022), 10% FBS, 1× Pen/Strep, 1× NaPyruvate, 10 mM HEPES, 600 ug/ml G418 media on 150 cm^2 tissue culture plates, washed with 5 mM EDTA in PBS (HyClone Dulbecco's Phosphate Buffered Saline 1× with Calcium and Magnesium, Cat # SH30264.01, hereafter referred to simply as PBS) and scraped into 50 ml tubes. After” for “After”, “sec just” for “sec”, “[^3H]-EMPA” for “[^3H]-(1-(5-(2-fluoro-phenyl)-2-methyl-thiazol-4-yl)-1-((S)-2-(5-phenyl-(1,3,4)oxadiazol-2-ylmethyl)-pyrrolidin-1-yl)-methanone)”

[1] abbreviates: human orexin 1 receptor, averages of 2-20 runs.
Where [2] appears, read: rat orexin 1 receptor, averages of 2-20 runs.

Where two headings read alike, the source gives them in different places. Where only a bound is given, the exact number is not on record here.

Chain of human orexin 2 receptor (O43614 whole entry): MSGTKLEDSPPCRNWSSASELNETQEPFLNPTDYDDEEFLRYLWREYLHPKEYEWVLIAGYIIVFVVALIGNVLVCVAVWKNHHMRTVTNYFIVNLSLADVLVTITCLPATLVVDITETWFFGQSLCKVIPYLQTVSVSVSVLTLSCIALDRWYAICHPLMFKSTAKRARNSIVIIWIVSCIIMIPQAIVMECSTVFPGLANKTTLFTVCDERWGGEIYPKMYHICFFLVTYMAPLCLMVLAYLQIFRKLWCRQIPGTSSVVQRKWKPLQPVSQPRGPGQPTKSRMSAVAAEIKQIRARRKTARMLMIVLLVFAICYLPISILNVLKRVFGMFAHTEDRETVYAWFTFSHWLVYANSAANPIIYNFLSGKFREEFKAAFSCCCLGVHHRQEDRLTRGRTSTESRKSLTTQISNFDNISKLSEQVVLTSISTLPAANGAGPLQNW

By Ki is commonly meant the equilibrium dissociation constant of an inhibitor or competing ligand from its target. Regarding `O=C(c1ccccc1-n1nccn1)N1C[C@H]2C[C@@H](Nc3ccc(C(F)(F)F)cn3)[C@@H]1C2` [Example 53, (2-(2H-1,2,3-triazol-2-yl)phenyl)((1S,4S,6R)-6-((5-(trifluoromethyl)pyridin-2-yl)amino)-2-azabicyclo[2.2.1]heptan-2-yl)methanone], the Ki at human orexin 1 receptor (setting [1]) was determined as 0.004 µM.

For `Cc1cccc(C(=O)N2C[C@H]3C[C@@H](Oc4ccc(C(F)(F)F)cn4)[C@@H]2C3)c1-c1ncco1` [Example 32, (3-methyl-2-(oxazol-2-yl)phenyl)((1S,4R,6R)-6-((5-(trifluoromethyl)pyridin-2-yl)oxy)-2-azabicyclo[2.2.1]heptan-2-yl)methanone], the inhibition constant (Ki) at human orexin 1 receptor (setting [1]) stood at 0.006 µM.

In the case of `O=C(c1c(F)cccc1-c1ncccn1)N1C[C@H]2C[C@@H](Oc3ccc(Br)cn3)[C@@H]1C2` [Example 47, ((1S,4R,6R)-6-((5-bromopyridin-2-yl)oxy)-2-azabicyclo[2.2.1]heptan-2-yl)(2-fluoro-6-(pyrimidin-2-yl)phenyl)methanone], the values for the Ki at rat orexin 1 receptor (setting [2]) and at human orexin 1 receptor (setting [1]) were 0.006 µM and 0.009 µM, respectively.

With `Cc1ccc(-n2nccn2)c(C(=O)N2C[C@H]3C[C@@H](Nc4ccc(C(F)(F)F)cn4)[C@@H]2C3)n1` [Example 54, (6-methyl-3-(2H-1,2,3-triazol-2-yl)pyridin-2-yl)((1S,4S,6R)-6-((5-(trifluoromethyl)pyridin-2-yl)amino)-2-azabicyclo[2.2.1]heptan-2-yl)methanone], the Ki on rat orexin 1 receptor is 0.006 µM; at human orexin 1 receptor it was 0.005 µM.

With `O=C(c1ccc(F)cc1-c1ncccn1)N1C[C@@H]2CC[C@H]1[C@H](Oc1ccc(C(F)(F)F)cn1)C2` [Example 259, (4-fluoro-2-(pyrimidin-2-yl)phenyl)((1S,4R,6R)-6-((5-(trifluoromethyl)pyridin-2-yl)oxy)-2-azabicyclo[2.2.2]octan-2-yl)methanone], the Ki at rat orexin 1 receptor (setting [2]) was 0.016 µM; at human orexin 1 receptor (setting [1]) it was 0.019 µM.

Regarding `O=C(c1ccccc1-n1nccn1)N1C[C@H]2C[C@@H](Oc3ccc(C(F)(F)F)cn3)[C@@H]1C2` [Example 36, (2-(2H-1,2,3-triazol-2-yl)phenyl)((1S,4R,6R)-6-((5-(trifluoromethyl)pyridin-2-yl)oxy)-2-azabicyclo[2.2.1]heptan-2-yl)methanone], the Ki on human orexin 1 receptor (setting [1]) is 0.013 µM.

On to `Cc1ccc(C(=O)N2C[C@H]3C[C@@H](Oc4ccc(C(F)(F)F)cn4)[C@@H]2C3)c(-n2ccnn2)n1` [Example 34, (6-methyl-2-(1H-1,2,3-triazol-1-yl)pyridin-3-yl)((1S,4R,6R)-6-((5-(trifluoromethyl)pyridin-2-yl)oxy)-2-azabicyclo[2.2.1]heptan-2-yl)methanone], for which the values for the inhibitory constant (Ki) on rat orexin 1 receptor (setting [2]) and on human orexin 1 receptor (setting [1]) were 0.162 µM and 0.368 µM, respectively.

For the molecule `O=C(c1ccccc1-c1ncc(F)cn1)N1CC2CCC1C(Oc1ccc(C(F)(F)F)cn1)C2` (racemic) [Example 251, (R/S)-(2-(5-fluoropyrimidin-2-yl)phenyl)(6-((5-(trifluoromethyl)pyridin-2-yl)oxy)-2-azabicyclo[2.2.2]octan-2-yl)methanone], the inhibition constant (Ki) was 0.018 µM at rat orexin 1 receptor (setting [2]) and 0.011 µM at human orexin 1 receptor (setting [1]).

Regarding `O=C(c1cccc(F)c1-c1ncccn1)N1C[C@H]2C[C@@H](Oc3ccccn3)[C@@H]1C2` [Example 104, (3-fluoro-2-(pyrimidin-2-yl)phenyl)((1S,4R,6R)-6-(pyridin-2-yloxy)-2-azabicyclo[2.2.1]heptan-2-yl)methanone], the Ki was 5 µM at human orexin 2 receptor and 0.497 µM on rat orexin 1 receptor (setting [2]).

On to `O=C(c1cccnc1-n1nccn1)N1C[C@H]2C[C@@H](Nc3ncc(C(F)(F)F)cn3)[C@@H]1C2` [Example 222, (2-(2H-1,2,3-triazol-2-yl)pyridin-3-yl)((1S,4S,6R)-6-((5-(trifluoromethyl)pyrimidin-2-yl)amino)-2-azabicyclo[2.2.1]heptan-2-yl)methanone], for which the Ki was above 10 µM on human orexin 2 receptor and 0.261 µM at rat orexin 1 receptor (setting [2]).

Regarding `Cc1ccc(-n2nccn2)c(C(=O)N2C[C@H]3C[C@@H](Oc4ccc5cccnc5n4)[C@@H]2C3)n1` [Example 286, ((1S,4R,6R)-6-((1,8-naphthyridin-2-yl)oxy)-2-azabicyclo[2.2.1]heptan-2-yl)(6-methyl-3-(2H-1,2,3-triazol-2-yl)pyridin-2-yl)methanone], the figures for the Ki at human orexin 2 receptor and on rat orexin 1 receptor (setting [2]) were 3.1 µM and 0.822 µM, respectively.

In the case of `COC(=O)c1cnc(N[C@@H]2C[C@H]3C[C@@H]2N(C(=O)c2ccccc2-n2nccn2)C3)cn1` [Example 221, methyl 5-(((1S,4S,6R)-2-(2-(2H-1,2,3-triazol-2-yl)benzoyl)-2-azabicyclo[2.2.1]heptan-6-yl)amino)pyrazine-2-carboxylate], the inhibition constant Ki at human orexin 2 receptor was determined as 3 µM; at rat orexin 1 receptor (setting [2]) it was 2.1 µM.

In the case of `O=C(c1ccccc1-c1ncc(F)cn1)N1C[C@@H]2CC[C@H]1[C@H](Oc1ccc(C(F)(F)F)cn1)C2` [Example 262, (2-(5-fluoropyrimidin-2-yl)phenyl)((1S,4R,6R)-6-((5-(trifluoromethyl)pyridin-2-yl)oxy)-2-azabicyclo[2.2.2]octan-2-yl)methanone], the inhibitory constant (Ki) on rat orexin 1 receptor (setting [2]) and on human orexin 1 receptor (setting [1]) was 0.01 µM in each case.

Turning to `CCc1cnc(O[C@@H]2C[C@H]3C[C@@H]2N(C(=O)c2nc(C)ccc2-n2nccn2)C3)nc1` [Example 136, ((1S,4R,6R)-6-((5-ethylpyrimidin-2-yl)oxy)-2-azabicyclo[2.2.1]heptan-2-yl)(6-methyl-3-(2H-1,2,3-triazol-2-yl)pyridin-2-yl)methanone], the inhibition constant (Ki) on human orexin 2 receptor was 4.7 µM; on rat orexin 1 receptor (setting [2]), 0.38 µM.

Take `O=C(c1ccc(F)cc1-c1ncccn1)N1CC2CCC1C(Oc1ccc(C(F)(F)F)cn1)C2` (racemic) [Example 250, (R/S)-(4-fluoro-2-(pyrimidin-2-yl)phenyl)(6-((5-(trifluoromethyl)pyridin-2-yl)oxy)-2-azabicyclo[2.2.2]octan-2-yl)methanone]: the inhibition constant (Ki) on rat orexin 1 receptor (setting [2]) is 0.022 µM; on human orexin 1 receptor (setting [1]), 0.024 µM.

For the molecule `CCc1cnc(O[C@@H]2C[C@H]3C[C@@H]2N(C(=O)c2nc(C)ccc2-c2ncccn2)C3)nc1` [Example 138, ((1S,4R,6R)-6-((5-ethylpyrimidin-2-yl)oxy)-2-azabicyclo[2.2.1]heptan-2-yl)(6-methyl-3-(pyrimidin-2-yl)pyridin-2-yl)methanone], the Ki on human orexin 2 receptor came to 2.7 µM; at rat orexin 1 receptor (setting [2]), 0.3 µM.

For the molecule `CCOc1ccc(C)nc1C(=O)N1C[C@H]2C[C@@H](Nc3ncc(C(F)(F)F)cn3)[C@@H]1C2` [Example 233, (3-ethoxy-6-methylpyridin-2-yl)((1S,4S,6R)-6-((5-(trifluoromethyl)pyrimidin-2-yl)amino)-2-azabicyclo[2.2.1]heptan-2-yl)methanone], the Ki on human orexin 2 receptor amounted to 1.1 µM; on rat orexin 1 receptor (setting [2]) it was 0.28 µM.

`CN(c1ccc(C(F)(F)F)cn1)[C@@H]1C[C@H]2C[C@@H]1N(C(=O)c1cccc(F)c1-c1ncccn1)C2` [Example 157, (3-fluoro-2-(pyrimidin-2-yl)phenyl)((1S,4S,6R)-6-(methyl(5-(trifluoromethyl)pyridin-2-yl)amino)-2-azabicyclo[2.2.1]heptan-2-yl)methanone]: the Ki on human orexin 2 receptor came to 0.351 µM; on rat orexin 1 receptor (setting [2]) it was 0.006 µM.

`Cc1ccc(-n2nccn2)c(C(=O)N2C[C@H]3C[C@@H](Oc4ccc(F)cn4)[C@@H]2C3)n1` [Example 119, ((1S,4R,6R)-6-((5-fluoropyridin-2-yl)oxy)-2-azabicyclo[2.2.1]heptan-2-yl)(6-methyl-3-(2H-1,2,3-triazol-2-yl)pyridin-2-yl)methanone]: the Ki at human orexin 2 receptor came to 3.6 µM; on rat orexin 1 receptor (setting [2]), 0.262 µM.

The record behind these values is patent US9611277B2 (Janssen Pharmaceutica NV, priority 2013, dated 2017).
